Data published in patent US8785149B2, “In vitro cellular bioassay for neurotoxicity testing” (The Arizona Board of Regents on Behalf of the University of …, priority 2010, dated 2014).
Entries after “also recorded” stand apart in the source; their conditions may differ. Each block holds one molecule with its values, some of them ahead of it.

Tests used:
[1] = tested on: fascin-deficient singed-mutant neurons; assay: Primary neuron culture neurotoxicity screen, fascin-deficient neurons; details: 3 days in vitro; for beads-on-a-string (BOS) defect (intra-neurite nodules): singed (sn) mutant larval CNS neurons; for neurotoxic defects: 10 and 50 μM, phase-contrast morphology; for BOS effect in sn-mutant, fascin-deficient neurons relative to wild-type: at each dose; for BOS density versus dose: wild-type and sn-mutant neurons, randomly selected neurons
Text: Following this enzymatic treatment, the tissue is washed and then mechanically triturated in culture medium to dissociate it into single cells.

[2] = tested on: wild-type (OreRC) neurons
[3] = tested on: cultured neurons with mutations in the Drosophila fragile X mental retardation 1 gene (dfmr1); assay type: cell-based
Text: In this case, the genetic control was designed (Michel et al. (2004). J. Neurosci., 23:5798-5809) to be identical in every possible way, except for the presence or absence of a normal dfmr1 gene.

neurite outgrowth [2]: inhibition of neurite outgrowth
Compound: CC(C)c1c(C(=O)Nc2ccccc2)c(-c2ccccc2)c(-c2ccc(F)cc2)n1CC[C@@H](O)C[C@@H](O)CC(=O)O [atorvastatin]
beads-on-a-string (BOS) defect (intra-neurite nodules) [1]: beads-on-a-string (BOS) defect; also recorded: induced

Compound: COc1ccc(C[C@H]2NC[C@H](O)[C@H]2OC(C)=O)cc1 [anisomycin]
neurotoxic defects [1]: overt neurotoxic defects

Compound: C[C@@H]1C[C@@H]([C@H](O)CC2CC(=O)NC(=O)C2)C(=O)[C@@H](C)C1 [cycloheximide]
neurotoxic defects [1]: overt neurotoxic defects

severity of BOS defect in dfmr1-mutant neurons versus control neurons [3]: less severe BOS defect
Compound: CC[C@H](C)C(=O)O[C@H]1C[C@H](O)C=C2C=C[C@H](C)[C@H](CC[C@@H](O)C[C@@H](O)CC(=O)O)[C@H]21 [pravastatin]
BOS effect in sn-mutant, fascin-deficient neurons relative to wild-type [1]: enhanced the sensitivity
beads-on-a-string (BOS) defect (intra-neurite nodules) [1]: beads-on-a-string (BOS) defect; also recorded: induced
BOS density versus dose [1]: increased with dose

Compound: C[C@@H]1O[C@@H](O[C@H]2C[C@@H](O)[C@]3(CO)[C@H]4[C@H](O)C[C@]5(C)[C@@H](C6=CC(=O)OC6)CC[C@]5(O)[C@@H]4CC[C@]3(O)C2)[C@H](O)[C@H](O)[C@H]1O [ouabain]
neurotoxic defects [1]: overt neurotoxic defects

Compound: CC[C@H](C)C(=O)O[C@H]1C[C@@H](C)C=C2C=C[C@H](C)[C@H](CC[C@@H]3C[C@@H](O)CC(=O)O3)[C@H]21 [lovastatin]
beads-on-a-string (BOS) defect (intra-neurite nodules) [1]: beads-on-a-string (BOS) defect; also recorded: induced

Compound: CC(C)c1nc(N(C)S(C)(=O)=O)nc(-c2ccc(F)cc2)c1/C=C/[C@@H](O)C[C@@H](O)CC(=O)O [rosuvastatin]
BOS effect in sn-mutant, fascin-deficient neurons relative to wild-type [1]: enhanced the sensitivity
beads-on-a-string (BOS) defect (intra-neurite nodules) [1]: beads-on-a-string (BOS) defect; also recorded: induced
BOS density versus dose [1]: increased with dose

Compound: CC(=O)O[C@H]1C(=O)[C@@]2(C)[C@H]([C@H](OC(=O)c3ccccc3)[C@]3(O)C[C@H](OC(=O)[C@H](O)[C@@H](NC(=O)c4ccccc4)c4ccccc4)C(C)=C1C3(C)C)[C@]1(OC(C)=O)CO[C@@H]1C[C@@H]2O [paclitaxel]
neurotoxic defects [1]: overt neurotoxic defects

Compound: C[CH2][Hg][S]c1ccccc1C(=O)[O-].[Na+] [thimerosal]
neurotoxic defects [1]: overt neurotoxic defects
